The target of one assay is T1, human cathepsin L (Homo sapiens, UniProt P07711).
T1 construct: purchased R&D Systems
The assay can be described thus: Cathepsin L assay (Z-FR-AMC fluorescence). The assay is classed as biochemical. To be noted: 10 pM human cathepsin L, 30 mins preincubation, Z-FR-AMC 2 μM. The procedure, abridged:
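IC50 values were taken from four-parameter fits of fluorescence read at 355/460 nm every 2 minutes for 30 minutes. The reaction started when 2 μM Z-FR-AMC was added. Before that, 10 pM human cathepsin L had been preincubated with inhibitor for 30 minutes.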

The subject of assay [1] is human beta-coronavirus OC43. The assay can be described thus: OC43 coronavirus antiviral assay in HeLa cells (cytopathic effect, cell-titer-glo). Particulars: Betacoronavirus 1, OC43, HeLa, 144 h, 6 days at 33° C., read-out: EC50 (class). It counts as cell-based. For orientation: Cytopathic effects are the visible damage that an infection or toxin causes in cultured cells.

In assay [2] the test system is SARS-CoV-2-GHB-03021/2020. The assay is classed as cell-based. Particulars: read-out: VeroE6 + CP (EC50).
The test system of assay [3] is B.1.1.7 lineage SARS-CoV-2. In words: microbe, parasite or virus in culture. The assay is classed as cell-based. Particulars: Severe acute respiratory syndrome coronavirus 2, 96 h; read-out: A549-dual_ACE2_TMPRSS2 (EC50).
The target in another assay is T2, SARS-Cov-2 3CLpro (Severe acute respiratory syndrome coronavirus 2, UniProt P0DTD1).
T2 construct: 3CLpro and HRV3C was added using a Multidrop Combi
The assay can be described thus: biochemical. Particulars: 3CLpro, 30 mins preincubation, SAMDI-MS; read-out: SARS-Cov-2 IC50 (class).

The target of another assay is T3, HRV3C (Human rhinovirus 14, UniProt P03303).
T3 construct: 3CLpro and HRV3C was added using a Multidrop Combi
T3 sequence (P03303 1538-1719): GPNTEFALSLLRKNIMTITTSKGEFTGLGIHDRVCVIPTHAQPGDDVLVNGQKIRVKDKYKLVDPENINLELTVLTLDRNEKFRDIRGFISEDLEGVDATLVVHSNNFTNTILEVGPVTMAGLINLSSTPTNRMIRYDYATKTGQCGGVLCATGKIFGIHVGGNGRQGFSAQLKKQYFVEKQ
The assay can be described thus: biochemical. More on the design: species or system HRV. To be noted: HRV3C, 30 mins preincubation, SAMDI-MS; read-out: HRV IC50 (bound).

The values below come from patent publication US12252481B2, “Anti-viral compounds” (Aligos Therapeutics, Inc., priority 2021, dated 2025).

T1 sequence (P07711 114-333): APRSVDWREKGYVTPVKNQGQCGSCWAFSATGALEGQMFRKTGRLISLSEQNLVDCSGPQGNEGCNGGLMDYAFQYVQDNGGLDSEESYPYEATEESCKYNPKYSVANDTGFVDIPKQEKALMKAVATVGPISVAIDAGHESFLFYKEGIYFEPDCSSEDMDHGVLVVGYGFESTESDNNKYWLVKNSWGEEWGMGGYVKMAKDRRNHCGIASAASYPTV

For the compound `C#CC(C)(C)[C@H](NC(=O)C(F)(F)F)C(=O)N1C[C@@H]2[C@@H]3CC[C@@H](C3)[C@@H]2[C@H]1C(=O)N[C@H](C#N)C[C@@H]1CCNC1=O` [Example 13, (1S,2S,3S,6R,7R)—N-[(1S)-1-cyano-2-[(3S)-2-oxopyrrolidin-3-yl]ethyl]-4-[(2S)-3,3-dimethyl-2-(2,2,2-trifluoroacetamido)pent-4-ynoyl]-4-azatricyclo[5.2.1.0^{2,6}]decane-3-carboxamide], the IC50 (as a rule, the midpoint of a concentration-inhibition curve) was ≥ 10000 nM against human cathepsin L, 20 to 200 nM on SARS-Cov-2 3CLpro and > 10000 nM on HRV3C. Besides, the EC50 (commonly the midpoint of the concentration-response curve) in assay [1] is 100 to 1000 nM; in assay [2], < 100 nM; in assay [3], < 100 nM.

As to `N#C[C@H](C[C@@H]1CCNC1=O)NC(=O)[C@@H]1[C@@H]2[C@H](CN1C(=O)c1cc3c(Cl)cc(Cl)cc3[nH]1)[C@@H]1C=C[C@H]2C1` [Compound 44, (1S,3aR,4S,7R,7aS)-N-((S)-1-cyano-2-((S)-2-oxopyrrolidin-3-yl)ethyl)-2-(4,6-dichloro-1H-indole-2-carbonyl)-2,3,3a,4,7,7a-hexahydro-1H-4,7-methanoisoindole-1-carboxamide], the results for the IC50 against human cathepsin L, on SARS-Cov-2 3CLpro and on HRV3C were ≥ 10000 nM, 20 to 200 nM and > 10000 nM, respectively. Besides, the values for the EC50 in assay [1], in assay [2] and in assay [3] were 100 to 1000 nM, 1000 to 10000 nM and 1000 to 10000 nM, respectively.

For `N#C[C@H](C[C@@H]1CCNC1=O)NC(=O)[C@@H]1[C@@H]2[C@H](CN1C(=O)[C@@H]1C[C@]13CCOc1ccccc13)[C@@H]1C=C[C@H]2C1` (relative stereo) [Compound 55, (1S,3aR,4S,7R,7aS)-N-((S)-1-cyano-2-((S)-2-oxopyrrolidin-3-yl)ethyl)-2-((2′R*,4S*)-spiro[chromane-4,1′-cyclopropane]-2′-carbonyl)-2,3,3a,4,7,7a-hexahydro-1H-4,7-methanoisoindole-1-carboxamide], the IC50 against human cathepsin L is ≥ 10000 nM; at SARS-Cov-2 3CLpro it was 20 to 200 nM; at HRV3C, > 10000 nM. Further, the results for the EC50 in assay [1], in assay [2] and in assay [3] were 1000 to 10000 nM, 100 to 1000 nM and 100 to 1000 nM, respectively.

`CC(C)(C)[C@H](NC(=O)C(F)(F)F)C(=O)N1C[C@H]2[C@@H]([C@H]1C(=O)N[C@H](C#N)CC1Cn3nccc3NC1=O)[C@H]1C=C[C@@H]2C1` (stereo partly drawn) [Example 9, (1S,3aR,4S,7R,7aS)—N-((1S)-1-cyano-2-(5-oxo-4,5,6,7-tetrahydropyrazolo[1,5-a]pyrimidin-6-yl)ethyl)-2-((S)-3,3-dimethyl-2-(2,2,2-trifluoroacetamido)butanoyl)-2,3,3a,4,7,7a-hexahydro-1H-4,7-methanoisoindole-1-carboxamide]: the IC50 is ≥ 10000 nM against human cathepsin L, < 20 nM at SARS-Cov-2 3CLpro and > 10000 nM at HRV3C. In addition, the EC50 in assay [1] was < 100 nM; in assay [2], < 100 nM; in assay [3], 100 to 1000 nM.

In the case of `CC(C)(C)[C@H](NC(=O)C1CC12CC2)C(=O)N1C[C@H]2[C@@H]([C@H]1C(=O)N[C@H](C#N)C[C@@H]1CCNC1=O)[C@H]1C=C[C@@H]2C1` (stereo partly drawn) [Example 34, (1R,2S,3S,6R,7S)—N-[(1S)-1-cyano-2-[(3S)-2-oxopyrrolidin-3-yl]ethyl]-4-[(2S)-3,3-dimethyl-2-{spiro[2.2]pentan-1-ylformamido}butanoyl]-4-azatricyclo[5.2.1.0^{2,6}]dec-8-ene-3-carboxamide], the figures for the IC50 against human cathepsin L, on SARS-Cov-2 3CLpro and at HRV3C were ≥ 10000 nM, < 20 nM and > 10000 nM, respectively. Besides, the figures for the EC50 in assay [1], in assay [2] and in assay [3] were < 100 nM, < 100 nM and 100 to 1000 nM, respectively.

Take `CC(C)(C)[C@H](NC(=O)C1(C2CC2)CC1)C(=O)N1C[C@H]2[C@@H]([C@H]1C(=O)N[C@H](C#N)C[C@@H]1CCNC1=O)[C@H]1C=C[C@@H]2C1` [Example 35, (1R,2S,3S,6R,7S)-4-[(2S)-2-{[1,1′-bi(cyclopropane)]-1-ylformamido}-3,3-dimethylbutanoyl]-N-[(1S)-1-cyano-2-[(3S)-2-oxopyrrolidin-3-yl]ethyl]-4-azatricyclo[5.2.1.0^{2,6}]dec-8-ene-3-carboxamide]: the IC50 against human cathepsin L is ≥ 10000 nM; on SARS-Cov-2 3CLpro it was 20 to 200 nM; at HRV3C it was > 10000 nM. Also, the results for the EC50 in assay [1], in assay [2] and in assay [3] were 100 to 1000 nM, 100 to 1000 nM and 1000 to 10000 nM, respectively.

For `CC(C)(C)[C@H](NC(=O)[C@H]1CC1(F)F)C(=O)N1C[C@H]2[C@@H]([C@H]1C(=O)N[C@H](C#N)C[C@@H]1CCNC1=O)[C@H]1C=C[C@@H]2C1` [Example 33, (1S,3aR,4S,7R,7aS)-N-((S)-1-cyano-2-((S)-2-oxopyrrolidin-3-yl)ethyl)-2-((S)-2-((R)-2,2-difluorocyclopropane-1-carboxamido)-3,3-dimethylbutanoyl)-2,3,3a,4,7,7a-hexahydro-1H-4,7-methanoisoindole-1-carboxamide], the IC50 against human cathepsin L was ≥ 10000 nM; at SARS-Cov-2 3CLpro it was < 20 nM; on HRV3C it was > 10000 nM. In addition, the concentration for a half-maximal effect (EC50) is < 100 nM in assay [1], < 100 nM in assay [2] and 100 to 1000 nM in assay [3].

In the case of `CC(C)(C)[C@H](NC(=O)C(F)(F)F)C(=O)N1C[C@@H]2[C@@H]3CC[C@@H](C3)[C@@H]2[C@H]1C(=O)N[C@H](C#N)CC1Cn2nccc2NC1=O` (relative stereo) [Compound 17a, (1S,3aR,4R,7S,7aS)-N-((S)-1-cyano-2-((R*)-5-oxo-4,5,6,7-tetrahydropyrazolo[1,5-a]pyrimidin-6-yl)ethyl)-2-((S)-3,3-dimethyl-2-(2,2,2-trifluoroacetamido)butanoyl)octahydro-1H-4,7-methanoisoindole-1-carboxamide], the IC50 on human cathepsin L was ≥ 10000 nM; on SARS-Cov-2 3CLpro, < 20 nM; at HRV3C, > 10000 nM. Moreover, the values for the EC50 in assay [1], in assay [2] and in assay [3] were < 100 nM, < 100 nM and 100 to 1000 nM, respectively.

Turning to `CC(C)(C)[C@H](NC(=O)c1ccco1)C(=O)N1C[C@H]2[C@@H]([C@H]1C(=O)N[C@H](C#N)C[C@@H]1CCNC1=O)[C@H]1C=C[C@@H]2C1` [Example 19, (1S,3aR,4S,7R,7aS)-N-((S)-1-cyano-2-((S)-2-oxopyrrolidin-3-yl)ethyl)-2-((S)-2-(furan-2-carboxamido)-3,3-dimethylbutanoyl)-2,3,3a,4,7,7a-hexahydro-1H-4,7-methanoisoindole-1-carboxamide], the IC50 against human cathepsin L was ≥ 10000 nM; on SARS-Cov-2 3CLpro it was 20 to 200 nM; on HRV3C it was > 10000 nM. The EC50 is < 100 nM in assay [1], 100 to 1000 nM in assay [2] and 100 to 1000 nM in assay [3].

For `CC(C)(C)[C@H](NC(=O)[C@@H]1CC1(F)F)C(=O)N1C[C@H]2[C@@H]([C@H]1C(=O)N[C@H](C#N)C[C@@H]1CCNC1=O)[C@H]1C=C[C@@H]2C1` [Compound 41], the IC50 was ≥ 10000 nM at human cathepsin L, < 20 nM on SARS-Cov-2 3CLpro and > 10000 nM at HRV3C. Besides, the EC50 in assay [1], in assay [2] and in assay [3] was < 100 nM in each case.

As for `CC(C)(C)[C@H](NC(=O)C(F)(F)F)C(=O)N1C[C@H]2[C@@H]([C@H]1C(=O)NC(C#N)C[C@]13CC[C@H](C1)NC3=O)[C@H]1C=C[C@@H]2C1` (stereo partly drawn) [Example 26, (1S,3aR,4S,7R,7aS)—N-(1-cyano-2-((1R,4S)-3-oxo-2-azabicyclo[2.2.1]heptan-4-yl)ethyl)-2-((S)-3,3-dimethyl-2-(2,2,2-trifluoroacetamido)butanoyl)-2,3,3a,4,7,7a-hexahydro-1H-4,7-methanoisoindole-1-carboxamide], the IC50 at human cathepsin L was ≥ 10000 nM; on SARS-Cov-2 3CLpro, 20 to 200 nM; on HRV3C, > 10000 nM. Besides, the EC50 in assay [1], in assay [2] and in assay [3] was 100 to 1000 nM throughout.

For `C=CC(C)(C)[C@H](NC(=O)C(F)(F)F)C(=O)N1C[C@H]2[C@@H]([C@H]1C(=O)N[C@H](C#N)C[C@@H]1CCNC1=O)[C@H]1C=C[C@@H]2C1` [Example 28, (1R,2S,3S,6R,7S)—N-[(1S)-1-cyano-2-[(3S)-2-oxopyrrolidin-3-yl]ethyl]-4-[(2S)-3,3-dimethyl-2-(2,2,2-trifluoroacetamido)pent-4-enoyl]-4-azatricyclo[5.2.1.0^{2,6}]dec-8-ene-3-carboxamide], the IC50 is ≥ 10000 nM at human cathepsin L, < 20 nM at SARS-Cov-2 3CLpro and > 10000 nM at HRV3C. Moreover, the EC50 in assay [1], in assay [2] and in assay [3] was < 100 nM in each case.

As to `CC(C)(C)[C@H](NC(=O)C(F)(F)Cl)C(=O)N1C[C@H]2[C@@H]([C@H]1C(=O)N[C@H](C#N)C[C@@H]1CCNC1=O)[C@H]1C=C[C@@H]2C1` [Example 39, (1R,2S,3S,6R,7S)-4-[(2S)-2-(2-chloro-2,2-difluoroacetamido)-3,3-dimethylbutanoyl]-N-[(1S)-1-cyano-2-[(3S)-2-oxopyrrolidin-3-yl]ethyl]-4-azatricyclo[5.2.1.0^{2,6}]dec-8-ene-3-carboxamide], the results for the IC50 against human cathepsin L, at SARS-Cov-2 3CLpro and on HRV3C were ≥ 10000 nM, < 20 nM and > 10000 nM, respectively. Also, the EC50 in assay [1], in assay [2] and in assay [3] was < 100 nM each time.
